Measurements reported in US20250049787A1, “TREATMENT FOR ACUTE MYELOID LEUKEMIA OR LYMPHOMA” (UNIVERSITY HEALTH NETWORK, priority 2021, published 2025).
Structures can show the parent of a compound that is named as a salt.

What was measured:
c-KIT (CD117) = test: Flow cytometry, cell surface c-KIT in primary human AML cells; type: cell-based; conditions: FLT3-ITD positive primary AML cells, viable CD14− blasts, 48 and 72 hours, dose-dependent
Procedure: Patient samples were obtained from Dr. Mark Minden (Princess Margaret Cancer Centre, Toronto, Ontario, Canada). FLT3-ITD positive AML cells were treated with the indicated concentrations of Compound (I) for 48 and 72 hours at 37° C. and 5% CO2 and stained with APC-CD45, PECy7-CD38, APC/Fire 750-CD33, PerCP-CD14, PE-FLT3 (Beckman Coulter, Cat. IM2234U), PE/Dazzle 594-CD117 (BioLegend, Cat. #313226) or isotype control antibodies and analyzed on a BD LSRFortessa II flow cytometry analyzer. Data were analyzed using FlowJo software and representative data are shown. Compound (I) treatment increases the cell surface expression of FLT3 and c-KIT in a dose-dependent manner in viable CD14^− AML blast cells. Similar results were obtained in additional FLT3-ITD positive primary AML samples (data not shown).

[1] = test system: mature 160 kDa form of FLT3-ITD; test: Immunoblot of FLT3 in MV-4-11 cells; type: cell-based, human; conditions: 4 hours, dose-dependent
Procedure: MV-4-11 cells (FLT3 LOH, FLT3-ITD positive cells) were treated with the indicated concentrations of Compound (I) tartrate for 4 hours at 37° C. and 5% CO2. Lysates were analyzed by immunoblot analysis with antibodies against FLT3 (Cell Signaling Technology, Inc., Cat. #3462), PARP (Cell Signaling Technology, Inc., Cat. #9542) and GAPDH (Millipore, Cat. #MAB374). Protein bands were visualized using a LI-COR Odyssey near infrared imager and representative data are shown. Compound (I) tartrate treatment increases the expression of the mature 160 kDa form of FLT3-ITD in MV-4-11 cells in a dose-dependent manner. Apoptotic cell death as measured by PARP cleavage was induced by Compound (I) tartrate treatment.

MV-4-11 xenografts = test: MV-4-11 xenograft model of human AML in CD-1 Nude mice; type: in vivo; conditions: for tumor status after 10 days of treatment: established MV-4-11 xenografts
Procedure: Female 8- to 10-week-old CD-1 Nude mice (Charles River Laboratories) with established MV-4-11 xenografts were treated for 21 days (n=8). MV-4-11 cells is a human AML cell line which endogenously expresses a Fms Related Receptor Tyrosine Kinase 3 (FLT3) internal tandem duplication (ITD) mutation. Animal weights were monitored daily, and tumor volume was measured three times per week. Tumor volume (mm^3) was defined as follows, length×width^2/2. Percentage tumor growth inhibition (% TGI) was defined as follows, 100×[1−(TVf,treated−TVi,treated)/(TVf,control−TVi,control)], where TVf is the average tumor volume at the end of study, and TVi is the average tumor volume at the initiation of treatment. In cases where tumor regression occurred, percentage tumor regression was defined as follows, 100×[1−(TVf,treated/TVi,treated)]. At the completion of the study, the mice were sacrificed by an anesthetic overdose. The Institutional Animal Care and Use Committee of the University Health Network approved all animal procedures. […] Data are represented as mean±SEM. p values were calculated using Student's/test.

TAK1/MAP3K7 = biological target: T1, TAK1/MAP3K7 (Homo sapiens, UniProt O43318); test: Radiometric HotSpot kinase assay, TAK1; type: biochemical; conditions: ATP 20 μM; casein 1 mg/mL
T1 construct: purchased Reaction Biology Corp. (Malvern, PA, USA)
Procedure: Kinase IC50 values were determined by Reaction Biology Corp. (Malvern, PA, USA) in the Radiometric HotSpot™ Assay using recombinantly expressed kinase enzymes. Compound (I) was tested in a 10-dose IC50 curve in duplicate. Enzymes were tested at the Km [ATP] for each enzyme using the Reaction Biology binning structure. Kinase reactions were initiated by the addition of protein or peptide substrate and [γ-^33P]-adenosine triphosphate (ATP). Phosphorylated substrates were captured by spotting of the reaction mix on filter membranes, and enzymatic activity was quantified by liquid scintillation counting. Substrates and ATP concentrations are as follows: • FLT3: Peptide substrate, [EAIYAAPFAKKK], 5 μM: ATP 50 μM • FLT3-ITD (internal tandem duplication): Peptide substrate, [EAIYAAPFAKKK], 20 μM: ATP, 30 μM • FLT3 (D835Y): Peptide substrate, [EAIYAAPFAKKK], 5 μM: ATP 20 μM • TAK1: Casein, 1 mg/mL: ATP, 20 μM

[2] = test system: Wild-type FLT3-expressing 32D cells; test: Growth inhibition, 32D transfectants; type: cell-based; conditions: 32D transfectant wild-type FLT3, 50 ng/ml human FLT3 ligand
Procedure: (§1) Cell lines were obtained from American Type Culture Collection (ATCC) and maintained according to the supplier's instructions, and from Dr. Mark Minden (Princess Margaret Cancer Centre, Toronto, Canada). Short tandem repeat (STR) profiling was used to verify authenticity of the cell lines. Peripheral blood from healthy human donors was obtained from the Hematology Malignancy Tissue Bank at the University Health Network. Peripheral blood mononuclear cells (PBMC) were prepared from the blood by density gradient centrifugation using Ficoll-Paque PLUS by manufacturer's instructions (GE Healthcare Life Sciences). […] Compound (I) tartrate was prepared as a 10 mM stock solution in 100% DMSO. The stock solution was diluted with RPMI-1640 (Invitrogen) containing 10% FBS (fetal bovine serum) such that the final concentrations ranged from 300 fM to 300 μM. Aliquots (20 μL) from each concentration were overlaid to 180 μL of pre-seeded cells to achieve final concentrations of 30 fM to 30 μM. After 3 days, cell growth in each well was assessed by Alamar Blue assay reagent (Invitrogen). Raw fluorescence (λEM=590 nm) values were adjusted by subtracting the average of the baseline readings from untreated cells assessed one day after cell seeding. Relative cell growth was calculated by comparing to DMSO-treated cells. […]

[3] = test system: FLT3-ITD-expressing 32D cells; test: Growth inhibition, 32D transfectants; type: cell-based; conditions: 32D transfectant FLT3-ITD, without cytokines
Procedure: as §1

T1 sequence (O43318 1-303 limits assumed): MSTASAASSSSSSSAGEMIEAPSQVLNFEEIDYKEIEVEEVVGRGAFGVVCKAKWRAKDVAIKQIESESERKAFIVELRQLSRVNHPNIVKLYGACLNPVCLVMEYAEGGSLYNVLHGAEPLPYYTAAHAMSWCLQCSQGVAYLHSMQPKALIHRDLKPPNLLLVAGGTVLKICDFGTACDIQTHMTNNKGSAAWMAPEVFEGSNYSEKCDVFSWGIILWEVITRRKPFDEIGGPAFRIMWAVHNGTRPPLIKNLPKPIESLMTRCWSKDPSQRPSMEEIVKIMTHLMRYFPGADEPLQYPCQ

## CN1CCN(c2ccc3nc(-c4c(N)c5ccsc5[nH]c4=O)[nH]c3c2)CC1 [Compound (I) tartrate, 4-amino-5-(6-(4-methylpiperazin-1-yl)-1H-benzo[d]imidazol-2-yl)thieno[2,3-b]pyridin-6(7H)-one]
c-KIT (CD117)
  cell surface expression of c-KIT (CD117): increases
[1]
  expression of the mature 160 kDa form of FLT3-ITD: increases
MV-4-11 xenografts; 50 mg/kg orally QD
  tumor status after 10 days of treatment: tumors were undetectable
MV-4-11 xenografts; 50 mg/kg, large tumors (≅900 mm^3)
  effect on large tumors after 7 days of treatment: complete tumor regression
MV-4-11 xenografts; 150 mg/kg orally QD
  tumor status after 10 days of treatment: tumors were undetectable
MV-4-11 xenografts; CD-1 Nude mice, 21 days treatment
  tolerability (body weight and behavior): well tolerated
TAK1/MAP3K7
  IC50: 18 nM
[2]
  IC50: 1650 nM
[3]
  IC50: 6.3 nM
